Results: patent US5192664A, “Parathyroid hypertensive factor, antibodies and uses thereof” (Pang; Peter K. T., priority 1990, dated 1993)

Tested on: Blood Pressure in SHR
Experiment: Feeding of nifedipine and dietary calcium to SHR rats for 8 weeks, mean blood pressure
Format: in vivo, rat
Conditions: for Blood Pressure in SHR: nifedipine 0 mg/kg food, 8 weeks feeding
Procedure: Male rats of the SHR strain, obtained from Harlan Sprague-Dawley, 12 weeks old, were divided into groups of 12 or 24, and were fed prepared diets containing 0.2%, 0.4% and 0.8% elemental calcium, respectively. […] Distilled water was available ad lib. Feeding was continued for 8 weeks and the mean blood pressure of each animal was determined at the end of that time.

[Ca] [Calcium]
decrease in blood pressure (4 times the amount of ordinary dietary calcium, no nifedipine): measurable, but small
Blood Pressure in SHR (dietary calcium 0.4%): 164 ± 6 mm Hg
Blood Pressure in SHR (dietary calcium 0.8%): 169 ± 6 mm Hg
